Laboratory results reported in patent publication US7998965B2, “Glutamate aggrecanase inhibitors” (Wyeth LLC, priority 2005, dated 2011).
Read-outs that look alike come from different tables or passages of the source.

Key:
[1] = target: T1, purified recombinant human Aggrecanase-1 (rAgg1) (Homo sapiens, UniProt O75173); experiment: In vitro fluorescence screen for Aggrecanase-1 inhibitors; type: biochemical; conditions: for IC50: read-out: Agg1 IC50
T1 sequence (O75173 213-837): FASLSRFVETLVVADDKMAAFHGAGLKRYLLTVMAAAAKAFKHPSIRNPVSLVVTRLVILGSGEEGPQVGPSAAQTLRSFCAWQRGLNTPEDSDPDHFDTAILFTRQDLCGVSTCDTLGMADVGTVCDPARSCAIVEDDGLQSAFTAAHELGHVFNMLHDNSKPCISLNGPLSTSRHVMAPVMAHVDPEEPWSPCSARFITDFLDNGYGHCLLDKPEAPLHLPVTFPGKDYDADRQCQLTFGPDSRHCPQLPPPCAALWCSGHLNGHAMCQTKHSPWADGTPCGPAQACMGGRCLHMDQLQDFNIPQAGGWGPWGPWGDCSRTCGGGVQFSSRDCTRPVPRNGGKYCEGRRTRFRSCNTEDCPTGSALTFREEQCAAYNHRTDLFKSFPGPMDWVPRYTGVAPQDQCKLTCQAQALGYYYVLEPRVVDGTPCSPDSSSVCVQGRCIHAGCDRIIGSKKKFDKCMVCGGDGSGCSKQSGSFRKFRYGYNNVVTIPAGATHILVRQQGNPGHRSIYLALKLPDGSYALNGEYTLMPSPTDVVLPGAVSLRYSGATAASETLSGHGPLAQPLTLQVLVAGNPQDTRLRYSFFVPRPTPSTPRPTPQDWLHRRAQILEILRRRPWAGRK

[2] = test system: bovine articular cartilage treated with Interleukin 1 alpha (IL-1α); experiment: Bovine articular cartilage explant cultures: inhibition of degradation of proteoglycan; type: cell-based; conditions: inhibitory effect expressed as percentage, concentration not printed
Description: This in vitro procedure was used to evaluate the effect and relative potencies of small molecule compounds to inhibit the degradation of proteoglycan in articular cartilage treated with Interleukin 1 alpha (IL-1α). Treatment of articular cartilage with IL 1α induces expression of a cascade of enzymes that initiates cartilage matrix degradation. This assay was utilized to select small molecule compounds that inhibit the enzyme activity and protects cartilage matrix degradation.
Articular cartilage: bovine metacarpal joints were disinfected with 10% Wescodyne followed by 70% ethanol. 6 mm articular cartilage discs were prepared and rinsed once in PBS and medium, respectively. The discs were cultured in a stirring flask with serum-free medium for 5 days for equilibrium with one medium change. Small molecule compounds: stock solutions of test small molecule compounds (usually at 5 mg/ml) were prepared in DMSO. Working solutions were diluted with DMSO and generally ranged from 0.1 μg/ml to 10 ug/ml. The DMSO stocks were stored at […]. Articular cartilage explant culture medium: DMEM, 2 mM glutamax, 100 U/ml of antibiotic and antimycotic, 50 μg/ml ascorbate and 10 mM Hepes (pH-7.0). Proteoglycan content-Dimethyl methylene blue (DMMB) solution: […] DMMB, 10 ml 100% ethanol, 29.5 ml of 1M NaOH, 3.5 ml of 98% formic acid and water to 1 L. Chondroitin sulphate sodium salt: 1.56-200 ug/ml serial dilutions.
For the explant culture, cartilage discs were cultured in serum-free medium for 48 h or more. Discs were weighed and transferred to a 96-well plate, 1 disc per-well. 0.2 ml of medium containing 5 ng/ml of IL-1 and different concentrations of compounds were added to each well, with 3 wells allocated for each treatment. The medium was collected at days 1, 2, & 3 and replaced accordingly.
For the DMMB assay, conditioned medium (CM) samples were diluted with medium. 10 ul of each standard or diluted sample was added in duplicate into a 96-well-plate and 200 μl of DMMB solution was added into each well. Absorbance at 520 nm was measured for each well. Proteoglycan contents in CM were calculated daily.
The proteoglycan contents are expressed as ug per mg of cartilage. The inhibitory effect of the compounds is expressed as percentage. (See, Tortorella, M. D. et al., Science 1999, 284, 1664-1666).

[3] = target: T2, purified recombinant human Aggrecanase-2 (Ag2t-Phe628-Strep) (Homo sapiens, UniProt Q9UNA0); experiment: In vitro fluorescence screen for Aggrecanase-2 inhibitors; type: biochemical; conditions: for IC50: read-out: Agg 2 IC50; for Ki: read-out: Ki Agg2
T2 construct: the form used is denoted as Ag2t-Phe628-Strep (MW=41,737)
T2 sequence (Q9UNA0 262-628): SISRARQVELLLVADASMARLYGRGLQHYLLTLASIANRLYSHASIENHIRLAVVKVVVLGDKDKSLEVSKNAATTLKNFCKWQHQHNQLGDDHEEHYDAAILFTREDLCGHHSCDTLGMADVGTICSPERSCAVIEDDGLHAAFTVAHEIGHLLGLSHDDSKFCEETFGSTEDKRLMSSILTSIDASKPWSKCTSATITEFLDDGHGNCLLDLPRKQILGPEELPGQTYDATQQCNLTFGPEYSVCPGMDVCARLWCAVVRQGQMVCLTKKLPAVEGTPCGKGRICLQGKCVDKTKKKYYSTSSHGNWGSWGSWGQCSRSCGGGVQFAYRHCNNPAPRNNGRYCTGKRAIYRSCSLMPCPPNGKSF

[4] = Table 1, enzyme not given, column follows Agg1 IC50, read-out: Ki
[5] = Table 1, first of two columns headed bovine
[6] = Table 1, second of two columns headed bovine

Row | IC50 ([1]; Table 3) [nM] | IC50 ([3]; Table 3) [nM] | Ki ([1]; Table 3, read-out: Ki Agg1) [nM] | Ki ([3]; Table 3) [nM] | SMILES | further results
1 |  |  |  |  | O=C(O)CC[C@H](NC(=O)c1ccc(-c2ccccc2)cc1)C(=O)NCc1ccc(F)c(F)c1 [Example 8AAA, N^2-(1,1′-biphenyl-4-ylcarbonyl)-N^1-(3,4-difluorobenzyl)-L-α-glutamine] | Ki [1, 4]: 44 nM; IC50 ([1]; Table 1): 48 nM; bovine [2, 5]: 83%; bovine [2, 6]: 55%
2 |  |  |  |  | CN(C)c1cccc(CNC(=O)[C@H](CCC(=O)O)NC(=O)c2ccc(-c3ccccc3)cc2)c1 [Example 8BBBB, N^2-(biphenyl-4-ylcarbonyl)-N^1-[3-(dimethylamino)benzyl]-L-α-glutamine] | IC50 ([1]; Table 1): 100 nM; bovine [2, 5]: 40%; bovine [2, 6]: 0%
3 |  |  |  |  | O=C(O)CC[C@H](NC(=O)c1ccc(-c2ccccc2)cc1)C(=O)NCC1CC1 [Example 8CCC, N^2-(1,1′-biphenyl-4-ylcarbonyl)-N^1-(cyclopropylmethyl)-L-α-glutamine] | IC50 ([1]; Table 1): 100 nM; bovine [2, 5]: 74%; bovine [2, 6]: 26%
4 |  |  |  |  | O=C(O)CC[C@H](NC(=O)c1ccc(-c2ccccc2)cc1)C(=O)NCCCc1ccccc1 [Example 8FF, N^2-(1,1′-biphenyl-4-ylcarbonyl)-N^1-(3-phenylpropyl)-L-α-glutamine] | Ki [1, 4]: 28 nM; IC50 ([1]; Table 1): 26 nM; bovine [2, 5]: 86%; bovine [2, 6]: 50%
5 |  |  |  |  | O=C(O)CC[C@H](NC(=O)c1ccc(-c2ccccc2)cc1)C(=O)NCc1cccc(C(F)(F)F)c1 [Example 8GGG, N^2-(1,1′-biphenyl-4-ylcarbonyl)-N^1-[3-(trifluoromethyl)benzyl]-L-α-glutamine] | IC50 ([1]; Table 1): 100 nM; bovine [2, 5]: 57%; bovine [2, 6]: 12%
6 | > 900 | > 8300 |  |  | CC(C)(Cc1ccccc1)NC(=O)[C@H](CCC(=O)O)NC(=O)c1cccc(-c2ccc(Cl)s2)c1 [N^2-[3-(5-chloro-2-thienyl)benzoyl]-N-(1,1-dimethyl-2-phenylethyl)-L-α-glutamine] | 
7 | 70 | 270 to 800 |  |  | CC(C)(Cc1ccccc1)NC(=O)[C@H](CCC(=O)O)NC(=O)c1ccc(-c2ccc3c(c2)OCC3)cc1 [N^2-[4-(2,3-dihydro-1-benzofuran-6-yl)benzoyl]-N-(1,1-dimethyl-2-phenylethyl)-L-α-glutamine] | 
8 | 300 to 900 |  |  |  | CC(=O)c1ccc(-c2ccc(C(=O)N[C@@H](CCC(=O)O)C(=O)NC(C)(C)Cc3ccccc3)cc2)s1 [N^2-[4-(5-acetyl-2-thienyl)benzoyl]-N-(1,1-dimethyl-2-phenylethyl)-L-α-glutamine] | inhibition at 2.5 µM ([3]; Table 3, at 2500 (nM), read-out: Agg 2 % at concentration): 5%
9 | < 30 | 30 to 100 | 8.3 | 69 | CC(C)(Cc1ccc(Cl)cc1)NC(=O)[C@H](CCC(=O)O)NC(=O)c1ccc(-c2ccc(Br)s2)cc1 [N^2-[4-(5-bromo-2-thienyl)benzoyl]-N-[2-(4-chlorophenyl)-1,1-dimethylethyl]-L-α-glutamine] | 
10 | > 400 | > 2700 |  |  | CC(C)(Cc1ccc(F)cc1)NC(=O)[C@@H](CCC(=O)O)NC(=O)c1ccc(-c2ccc(Cl)s2)cc1 [N^2-[4-(5-chloro-2-thienyl)benzoyl]-N-[2-(4-fluorophenyl)-1,1-dimethylethyl]-D-α-glutamine] | 
11 | < 30 | 200 |  |  | CC(C)(Cc1ccc(F)cc1)NC(=O)[C@H](CCC(=O)O)NC(=O)c1ccc(-c2ccccc2)cc1F [N^2-[(3-fluorobiphenyl-4-yl)carbonyl]-N-[2-(4-fluorophenyl)-1,1-dimethylethyl]-L-α-glutamine] | 
12 | < 30 | 200 | 8.8 | 157 | CC(C)(Cc1ccc(F)cc1)NC(=O)[C@H](CCC(=O)O)NC(=O)c1ccc(-c2cccc(Cl)c2)cc1 [N^2-[(3′-chlorobiphenyl-4-yl)carbonyl]-N-[2-(4-fluorophenyl)-1,1-dimethylethyl]-L-α-glutamine] | 
13 | < 30 | 77 | 4.5 | 81 | CC(C)(Cc1ccc(F)cc1)NC(=O)[C@H](CCC(=O)O)NC(=O)c1ccc(-c2cccc(F)c2)cc1 [N^2-[(3′-fluorobiphenyl-4-yl)carbonyl]-N-[2-(4-fluorophenyl)-1,1-dimethylethyl]-L-α-glutamine] | 
14 | < 30 | 59 | 6.7 | 54 | CC(C)(Cc1ccc(F)cc1)NC(=O)[C@H](CCC(=O)O)NC(=O)c1ccc(-c2ccc(Cl)cc2)cc1 [N^2-[(4′-chlorobiphenyl-4-yl)carbonyl]-N-[2-(4-fluorophenyl)-1,1-dimethylethyl]-L-α-glutamine] | 
15 | < 30 | 83 | 6.9 | 75 | CC(C)(Cc1ccc(F)cc1)NC(=O)[C@H](CCC(=O)O)NC(=O)c1ccc(-c2ccc(F)cc2)cc1 [N^2-[(4′-fluorobiphenyl-4-yl)carbonyl]-N-[2-(4-fluorophenyl)-1,1-dimethylethyl]-L-α-glutamine] | 
16 | < 30 | 60 to 200 | < 3 | 156 | CC(C)(Cc1ccccc1)NC(=O)[C@H](CCC(=O)O)NC(=O)c1ccc(-c2ccc(F)c(Cl)c2)s1 [N^2-{[5-(3-chloro-4-fluorophenyl)-2-thienyl]carbonyl}-N-(1,1-dimethyl-2-phenylethyl)-L-α-glutamine] | 
17 | 60 | 3000 |  |  | CC(C)(Cc1ccc(Cl)cc1)NC(=O)[C@H](CCC(=O)O)NC(=O)c1ccc(-c2ccc(F)c(Cl)c2)s1 [N^2-{[5-(3-chloro-4-fluorophenyl)-2-thienyl]carbonyl}-N-[2-(4-chlorophenyl)-1,1-dimethylethyl]-L-α-glutamine] | 
18 | < 30 | 98 | 6.7 | 45 | CC(C)(Cc1ccc(F)cc1)NC(=O)[C@H](CCC(=O)O)NC(=O)c1ccc(-c2ccc(F)c(Cl)c2)s1 [N^2-{[5-(3-chloro-4-fluorophenyl)-2-thienyl]carbonyl}-N-[2-(4-fluorophenyl)-1,1-dimethylethyl]-L-α-glutamine] | 
19 | 20 to 70 | 100 to 300 | 37.6 | 359 | CC(C)(Cc1ccccc1)NC(=O)[C@H](CCC(=O)O)NC(=O)c1ccc(-c2ccc(Cl)s2)nc1 [N^2-{[6-(5-chloro-2-thienyl)pyridin-3-yl]carbonyl}-N-(1,1-dimethyl-2-phenylethyl)-L-α-glutamine] | 

Row | SMILES | IC50 ([1]; Table 3) [nM] | IC50 ([3]; Table 3) [nM] | Ki ([1]; Table 3, read-out: Ki Agg1) [nM] | Ki ([3]; Table 3) [nM] | further results
20 | CC(=O)c1ccc(-c2ccc(C(=O)N[C@@H](CCC(=O)O)C(=O)NC(C)(C)Cc3ccc(Cl)cc3)cc2)s1 [N^2-[4-(5-acetyl-2-thienyl)benzoyl]-N-[2-(4-chlorophenyl)-1,1-dimethylethyl]-L-α-glutamine] | 2400 |  |  |  | inhibition at 7.4 µM ([3]; read-out: Agg 2 % at concentration): 50%
